Data reported in US20250186452A1, “NOVEL USE OF QUINOLINE COMPOUND” (TARAPEUTICS SCIENCE INC., priority 2022, published 2025).

What was measured:
MC38 cells = test: In vivo efficacy in MC38 cell tumor transplantation mouse model; details: 50 mg/kg oral once a day
Protocol: (§1) In this example, the experimental effects of Compound 2 and the control compound PLX3397 (purchased from MedChem Express, China) in MC38 and 4T1 mouse models were tested respectively.
(§2) The experimental procedure was as follows: • (1) C57BL/6J male mice for use as MC38 transplanted tumor model and Balb/c male mice for use as 4T1 transplanted tumor model, which were 6 weeks old, were purchased from GemPharmatech Co., Ltd, Jiangsu. All the above mice were raised in an SPF laboratory, and the drinking water and padding had been sterilized by high pressure sterilization. All operations related to mice were performed under sterile conditions. • (2) On day 0, approximately 1×10^6 MC38 cells (purchased from ATCC) were injected subcutaneously into the left back of each of the C57BL/6J mice, and approximately 1×10^6 4T1 cells (purchased from ATCC) were injected subcutaneously into the left back of each of the Balb/c mice. • (3) For the MC38 mouse model, starting from the 6th day, the corresponding mice were orally administered with methylcellulose (HKI) (purchased from China National Pharmaceutical Group Corporation) solvent once a day (5 mice); Compound 2 at a dose of 50 mg/kg mouse weight once a day (5 mice); PLX3397 at a dose of 50 mg/kg mouse weight once a day (5 mice). For the 4T1 mouse model, starting from the 6th day, the corresponding mice were orally administered with 10% HS-15 (purchased from BASF, Germany) solvent (5 mice); Compound 2 at a dose of 50 mg/kg mouse weight once a day (5 mice); PLX3397 at a dose of 50 mg/kg mouse weight once a day (5 mice). • (4) Starting from the 6th day, the length/width of the subcutaneous tumor was measured with a vernier caliper every day, and the weight of the mice was recorded every day to determine the effects of Compound 2 and control compound PLX3397 on the weight of mice in different model mice. The results are shown in FIGS. 3 and 6. • (5) The growth trends of subcutaneous tumors in mice of different models were statistically analyzed. The tumor volume was calculated using the following method: length×width×width/2 mm^3. The results are shown in FIGS. 4 and 7. • (6) Isolation of tumor-infiltrating lymphocytes: Tumor tissue was first minced (tissue block less than 1 mm^3) with a surgical blade, resuspended in 6 ml of digestion solution (collagenase IV and 0.005% DNaseI enzyme, both purchased from Sigma, USA), and the mixture was transferred to a 15-ml centrifuge tube. The centrifuge tube was then placed in a shaker at 37° C. and digested with shaking at 220 r/min for 2 hours. The cells were sieved through a 200-mesh sieve and collected in a 50-ml centrifuge tube, and centrifuged at 1500 rpm for 10 minutes. The supernatant was then discarded, and 10 ml of DMEM medium (10% FBS) (purchased from GIBCO, USA) was added to the tube to terminate the digestion. The tube was placed in a centrifuge, and centrifuged at 1500 rpm for another 10 minutes. The supernatant was discarded. At the same time, Percoll separation solution (purchased from Millipore, USA) was prepared, and 90% Percoll separation working solution was prepared using 10×PBS. To a 15 ml centrifuge tube, 3-4 ml of 70% Percoll separation solution was added. The cells were resuspended in 4 ml of 40% Percoll separation solution, and the cell mixture was added to the 70% Percoll separation solution. The centrifuge tube was placed in a centrifuge and subjected to density gradient centrifugation at 25° C., 1260 g, for 30 minutes (speed up 5, speed down 0). After the centrifugation, the centrifuge tube was placed on a centrifuge tube rack, the middle leukocyte layer was aspirated with a pipette, and added to 10 ml of PBS, they were mixed well and placed in a centrifuge, and centrifuged at 1500 rpm. The cell supernatant was discarded after 10 min and the cells were resuspended in 5 ml of PBS, centrifuged at 1500 rpm for another 10 min, and the washing process was repeated once. The cells obtained were leukocytes in the tumor tissue. […]

4T1 cells = test: In vivo efficacy in 4T1 cell tumor transplantation mouse model; details: 4T1 model, 50 mg/kg oral once a day
Protocol: as §1, §2

TEL-CSF1R-BaF3 = target: T1, TEL-CSF1R-BaF3 (Homo sapiens, UniProt P07333); test: Proliferation of TEL-CSF1R-BaF3 cells (CCK-8, 72 hours); format: cell-based; details: 72 hours incubation, CCK-8
T1 construct: expressed in transfected cells; host or cells: mouse BaF3 cells (ATCC), retroviral transduction with MSCV-Puro vector, IL-3 withdrawn; the other entry of the earlier key: ETV6 (P41212, Transcription factor ETV6)
T1 sequence (P07333 582-910 limits assumed): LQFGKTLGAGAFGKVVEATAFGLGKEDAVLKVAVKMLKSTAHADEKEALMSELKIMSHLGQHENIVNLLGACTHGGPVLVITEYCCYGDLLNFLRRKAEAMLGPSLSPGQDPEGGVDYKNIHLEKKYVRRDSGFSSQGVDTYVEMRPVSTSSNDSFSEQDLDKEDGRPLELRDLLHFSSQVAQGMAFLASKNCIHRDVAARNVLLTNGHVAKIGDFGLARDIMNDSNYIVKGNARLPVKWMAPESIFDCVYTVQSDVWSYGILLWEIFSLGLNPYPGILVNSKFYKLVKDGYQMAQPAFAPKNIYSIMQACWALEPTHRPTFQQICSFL
Protocol: (§3) The incubated cells were detected by CCK-8 (purchased from MedChem Express, China) cell viability detection kit (CCK-8 can be reduced by dehydrogenases in living cells to a highly water-soluble yellow formazan product, and the amount of the generated formazan product is proportional to the number of living cells). The number of living cells was quantified by a microplate reader, and the GI50 for each compound was calculated (the results are shown in Table 2).
The construction method of the TEL-CSF1R-BaF3 cell line (a cell line stably expressing CSF1R kinase) was as follows: the sequence of human CSF1R kinase region was amplified by PCR and inserted into the MSCV-Puro vector (Clontech) with an N-terminal TEL fragment, and stably transferred into mouse BaF3 cells (purchased from ATCC, USA) by a retroviral method, and IL-3 growth factor was removed, finally a cell line dependent on CSF1R transferred protein was obtained.

M-NSF-60 = test: Proliferation of M-NSF-60 cells with M-CSF (CCK-8, 72 hours); format: cell-based, mouse; details: Mus musculus; M-CSF 50 ng/ml in medium, 72 hours incubation, CCK-8; read-out: M-NSF-60 (GI50/μM)
Protocol: as §3

Compound	toxicity (mouse body weight) (MC38 cells; FIG. 3)	inhibition effect of mouse tumors (MC38 cells; FIG. 4)	toxicity (mouse body weight) (4T1 cells; FIG. 6)	inhibition effect of mouse tumors (4T1 cells; FIG. 7)	GI50 (TEL-CSF1R-BaF3) [µM]	GI50 (M-NSF-60) [µM]
FC(F)(F)c1ccc(CNc2ccc(Cc3c[nH]c4ncc(Cl)cc34)cn2)cn1 [PLX3397, reference compound]	no obvious toxicity	good inhibition effect of mouse tumors	no obvious toxicity	good inhibition effect of mouse tumors	–	–
COc1cc2nccc(Oc3ccc(NC(=O)Cc4ccc(F)c(C(F)(F)F)c4)cc3)c2cc1OC [Example 13, N-(4-((6,7-dimethoxyquinolin-4-yl)oxy)phenyl)-2-(4-fluoro-3-(trifluoromethyl)phenyl)acetamide]	–	–	–	–	0.002	0.018
COc1cc2nccc(Oc3ccc(NC(=O)Cc4ccc(Cl)c(C(F)(F)F)c4)cc3Cl)c2cc1OC [Example 38, N-(3-chloro-4-((6,7-dimethoxyquinolin-4-yl)oxy)phenyl)-2-(4-chloro-3-(trifluoromethyl)phenyl)acetamide]	–	–	–	–	0.026	0.32
COc1cc2nccc(Oc3ccc(NC(=O)Cc4ccc(Cl)c(C(F)(F)F)c4)cc3C)c2cc1OC [Example 27, N-(3-methyl-4-((6,7-dimethoxyquinolin-4-yl)oxy)phenyl)-2-(4-chloro-3-(trifluoromethyl)phenyl)acetamide]	–	–	–	–	0.003	0.041
